Numbers after ± are expanded uncertainties.

For this series the following is noted: Crystal; DTA.
With `O` [water], the Normal melting temperature worked out at 0.00 ± 0.5 °C.

On to `CCCCCC` [hexane], for which the Normal melting temperature was -95.76 ± 0.5 °C.

On to `[Hg]` [mercury], for which the Normal melting temperature was -38.86 ± 0.5 °C.

Values taken from the NIST ThermoML archive (doi:10.1016/j.jct.2016.12.030).
